What was measured:
[1] = Partition coefficient (logP); format: physicochemical; conditions: octanol/water
Mus musculus = organism: Mus musculus; experiment: log(1/C) was estimated in mice; format: organism-based; conditions: in vivo
P388 [2] = experiment: Minimum effective dose was determined on P388 leukemia cells in mice; format: functional, Mus musculus; conditions: for minimal effective dose: Mus musculus, P388, read-out: MED
P388 [3] = experiment: Maximal effect of the given optimal dose of 3.2 mg/kg against P388 leukemia cells in mice; format: functional, Mus musculus
P388 [4] = experiment: Maximal effect of the given optimal dose of 0.8 mg/kg against P388 leukemia cells in mice; format: functional, Mus musculus
P388 [5] = experiment: Maximal effect of the given optimal dose of 1.6 mg/kg against P388 leukemia cells in mice; format: functional, Mus musculus
P388 [6] = experiment: Maximal effect of the given optimal dose of 0.4 mg/kg against P388 leukemia cells in mice; format: functional, Mus musculus
P388 [7] = experiment: Maximal effect of the given optimal dose of 12.8 mg/kg against P388 leukemia cells in mice; format: functional, Mus musculus
B16 [8] = experiment: Maximal effect of the given optimal dose of 0.4 mg/kg against B16 melanoma cells in mice; format: organism-based; parameters: dose 0.4 mg/kg; conditions: mouse, in vivo
P388 [9] = experiment: Maximal effect of the given optimal dose of 6.4 mg/kg against P388 leukemia cells in mice; format: functional, Mus musculus
P388 [10] = experiment: Maximal effect of the given optimal dose of 0.2 mg/kg against P388 leukemia cells in mice; format: functional, Mus musculus
B16 [11] = experiment: Maximal effect of the given optimal dose of 1.2 mg/kg against B16 melanoma in mice; format: functional, Mus musculus
B16 [12] = experiment: Minimum effective dose was determined on B16 melanoma cells in mice; format: functional; conditions: Mus musculus, read-out: MED
B16 [13] = experiment: Maximal effect of the given optimal dose of 0.8 mg/kg against B16 melanoma cells in mice; format: functional, Mus musculus
B16 [14] = experiment: Maximal effect of the given optimal dose of 1.6 mg/kg against B16 melanoma in mice; format: functional, Mus musculus
B16 [15] = experiment: Maximal effect of the given optimal dose of 0.4 mg/kg against B16 melanoma in mice; format: functional, Mus musculus
B16 [16] = experiment: Maximal effect of the given optimal dose of 0.8 mg/kg against B16 melanoma in mice; format: functional, Mus musculus
B16 [17] = experiment: Maximal effect of the given optimal dose of 0.3 mg/kg against B16 melanoma in mice; format: functional, Mus musculus

Structure (SMILES) | logP [1] | Log 1/C (Mus musculus) | MED (P388 [2]) [M/kg] | minimal effective dose (P388 [2]) [mg/kg] | further results
CO[C@@]12C(COC(N)=O)C3=C(C(=O)C(C)=C(OCc4cccs4)C3=O)N1CC1NC12 (some centres not stated) | 2.07 | 5.15 | 7.13e-06 | 3.2 | T/C (P388 [3]): 159%
COCC(C)OC1=C(C)C(=O)C2=C(C1=O)C(COC(N)=O)[C@@]1(OC)C3NC3CN21 (some centres not stated) | 0.79 | 6.21 | 4.81e-07 | 0.2 | T/C (P388 [4]): 206%
CCOCCOC1=C(C)C(=O)C2=C(C1=O)C(COC(N)=O)[C@@]1(OC)C3NC3CN21 (some centres not stated) | 0.79 | 7.33 | 4.65e-07 | 0.2 | T/C (P388 [5]): 133%
CO[C@@]12C(COC(N)=O)C3=C(C(=O)C(C)=C(OCC4OCCO4)C3=O)N1CC1NC12 (some centres not stated) | -0.18 | 7.23 | 5.88e-07 | < 0.05 | T/C (P388 [6]): 267%
CO[C@@]12C(COC(N)=O)C3=C(C(=O)C(C)=C(OCCN4CCCCC4)C3=O)N1CC1NC12 (some centres not stated) | 1.96 | 6.06 | 8.71e-07 | 0.4 | T/C (P388 [7]): 191%
CO[C@@]12C(COC(N)=O)C3=C(C(=O)C(C)=C(OCCSC)C3=O)N1CC1NC12 (some centres not stated) | 1.37 | 6.02 | 9.57e-07 | 0.4 | T/C (P388 [5]): 165%
CO[C@@]12C(COC(N)=O)C3=C(C(=O)C(C)=C(OCCN4CCCC4)C3=O)N1CC1NC12 (some centres not stated) | 1.46 | 6.94 | 1.13e-07 | < 0.1 | T/C (B16 [8]): 107%; T/C (P388 [9]): 217%
CO[C@@]12C(COC(N)=O)C3=C(C(=O)C(C)=C(OCCCN4CCN(C)CC4)C3=O)N1CC1NC12 (some centres not stated) | 1.16 | 4.9 | 1.265e-05 | 6.4 | T/C (P388 [7]): >167%
CO[C@@]12C(COC(N)=O)C3=C(C(=O)C(C)=C(OCCN4CCSCC4)C3=O)N1CC1NC12 (some centres not stated) | 2.07 | 6.67 | 2.06e-07 | 0.1 | T/C (P388 [9]): >172%
CCN1CCCC1CCOC1=C(C)C(=O)C2=C(C1=O)C(COC(N)=O)[C@@]1(OC)C3NC3CN21 (some centres not stated) | 1.96 | 6.96 | 1.09e-07 | < 0.1 | T/C (P388 [7]): 211%
CO[C@@]12C(COC(N)=O)C3=C(C(=O)C(C)=C(OCCSCc4ccccc4)C3=O)N1CC1NC12 (some centres not stated) | 3.58 | 6.37 | 4.25e-07 | 0.2 | T/C (P388 [9]): 156%
CO[C@@]12C(COC(N)=O)C3=C(C(=O)C(C)=C(OC/C=C/CO)C3=O)N1CC1NC12 (some centres not stated) | 0.46 | 6.21 | 4.83e-07 | 0.2 | T/C (P388 [3]): 150%
CO[C@@]12C(COC(N)=O)C3=C(C(=O)C(C)=C(OCCCN(CCO)CCO)C3=O)N1CC1NC12 (some centres not stated) | -0.28 |  |  |  | T/C (P388 [10]): 106%
CO[C@@]12C(COC(N)=O)C3=C(C(=O)C(C)=C(OC4CCN(C)CC4)C3=O)N1CC1NC12 (some centres not stated) | 1.46 | 5.15 | 7.1e-06 | 3.2 | T/C (P388 [3]): 155%
CO[C@@]12C(COC(N)=O)C3=C(C(=O)C(C)=C(OC4COCOC4)C3=O)N1CC1NC12 (some centres not stated) | 0.31 | 6.93 | 1.18e-07 | < 0.1 | T/C (B16 [11]): 222%; minimal effective dose (B16 [12]): < 0.3 mg/kg; T/C (P388 [5]): 210%
CO[C@@]12C(COC(N)=O)C3=C(C(=O)C(C)=C(OCc4ccccn4)C3=O)N1CC1NC12 (some centres not stated) | 0.91 | 6.04 | 9.2e-07 | 0.4 | T/C (P388 [4]): 164%
CCSCC(O)COC1=C(C)C(=O)C2=C(C1=O)C(COC(N)=O)[C@@]1(OC)C3NC3CN21 (some centres not stated) | 1.25 | 6.37 | 4.33e-07 | 0.2 | T/C (P388 [3]): >322%

Structure (SMILES) | logP [1] | Log 1/C (Mus musculus) | MED (P388 [2]) [M/kg] | minimal effective dose (P388 [2]) [mg/kg] | further results
CO[C@@]12C(COC(N)=O)C3=C(C(=O)C(C)=C(OCCSCCSCCO)C3=O)N1CC1NC12 (some centres not stated) | 1.86 | 5.84 | 1.603e-06 | 0.8 | T/C (P388 [4]): 140%
CO[C@@]12C(COC(N)=O)C3=C(C(=O)C(C)=C(OCCCSCCCO)C3=O)N1CC1NC12 (some centres not stated) | 3.49 | 6.98 | 1.02e-07 | < 0.1 | T/C (P388 [9]): 153%
CO[C@@]12C(COC(N)=O)C3=C(C(=O)C(C)=C(OC4CC4)C3=O)N1CC1NC12 (some centres not stated) | 1.17 | 6.89 | 1.3e-07 | 0.05 | minimal effective dose (B16 [12]): 0.8 mg/kg; T/C (B16 [13]): 138%; T/C (P388 [3]): 172%
CO[C@@]12C(COC(N)=O)C3=C(C(=O)C(C)=C(OCC4COCO4)C3=O)N1CC1NC12 (some centres not stated) | 0.31 | 6.32 | 4.75e-07 | 0.2 | T/C (P388 [6]): 140%
CO[C@@]12C(COC(N)=O)C3=C(C(=O)C(C)=C(OCCNC(C)=O)C3=O)N1CC1NC12 (some centres not stated) | -0.21 | 6.03 | 9.32e-07 | 0.4 | T/C (P388 [7]): 150%
CO[C@@]12C(COC(N)=O)C3=C(C(=O)C(C)=C(OC4CCOCC4)C3=O)N1CC1NC12 (some centres not stated) | 1.29 | 6.93 | 1.17e-07 | < 0.1 | T/C (B16 [14]): 135%; minimal effective dose (B16 [12]): 1.6 mg/kg; T/C (P388 [3]): 212%
CCO[Si](CCCOC1=C(C)C(=O)C2=C(C1=O)C(COC(N)=O)[C@@]1(OC)C3NC3CN21)(OCC)OCC (some centres not stated) |  | 6.44 | 3.59e-07 | 0.2 | T/C (P388 [7]): 167%
CO[C@@]12C(COC(N)=O)C3=C(C(=O)C(C)=C(OCCC4OCCCO4)C3=O)N1CC1NC12 (some centres not stated) | 0.82 |  |  |  | minimal effective dose (B16 [12]): < 0.3 mg/kg; T/C (B16 [15]): 154%; T/C (P388 [10]): 117%
CCOC(=O)CCCOC1=C(C)C(=O)C2=C(C1=O)C(COC(N)=O)[C@@]1(OC)C3NC3CN21 (some centres not stated) | 1.49 | 4.85 | 1.41e-05 | 6.4 | T/C (P388 [7]): 171%
COCC(O)COC1=C(C)C(=O)C2=C(C1=O)C(COC(N)=O)[C@@]1(OC)C3NC3CN21 (some centres not stated) | -0.59 | 6.94 | 1.16e-07 | < 0.1 | minimal effective dose (B16 [12]): 0.2 mg/kg; T/C (B16 [16]): 211%; T/C (P388 [4]): 222%
CO[C@@]12C(COC(N)=O)C3=C(C(=O)C(C)=C(OCCC4CCCN4C)C3=O)N1CC1NC12 (some centres not stated) | 1.46 | 5.21 | 7.033e-06 | 3.2 | T/C (P388 [7]): >156%
CO[C@@]12C(COC(N)=O)C3=C(C(=O)C(C)=C(OCCOCCCl)C3=O)N1CC1NC12 (some centres not stated) | 1.18 | 7.21 | 6.2e-08 | < 0.05 | minimal effective dose (B16 [12]): 0.4 mg/kg; T/C (B16 [13]): 169%; T/C (P388 [3]): 183%
CO[C@@]12C(COC(N)=O)C3=C(C(=O)C(C)=C(OCCSc4ccccc4)C3=O)N1CC1NC12 (some centres not stated) | 3.12 | 5.17 | 6.73e-06 | 3.2 | T/C (P388 [7]): 130%
CO[C@@]12C(COC(N)=O)C3=C(C(=O)C(C)=C(OCCOc4ccccc4)C3=O)N1CC1NC12 (some centres not stated) | 2.39 | 5.45 | 3.516e-06 | 1.6 | T/C (P388 [3]): 130%
CO[C@@]12C(COC(N)=O)C3=C(C(=O)C(C)=C(OCC4CC4)C3=O)N1CC1NC12 (some centres not stated) | 1.67 | 5.97 | 1.028e-06 | 0.4 | T/C (P388 [5]): 144%
COC1=C(C)C(=O)C2=C(C1=O)[C@@H](COC(N)=O)[C@@]1(OC)[C@H]3N[C@H]3CN21 [MITOMYCIN A] |  | 6.84 | 1.43e-07 | 0.05 | minimal effective dose (B16 [12]): 0.05 mg/kg; T/C (B16 [17]): 177%; T/C (P388 [3]): 180%

From ChEMBL document CHEMBL1124431, “Preparation and antitumor activity of additional mitomycin A analogues” (J Med Chem, 1989)
